# Experimental data reported in ChEMBL document CHEMBL5506025, “Discovery of LLC0424 as a Potent and Selective in Vivo NSD2 PROTAC Degrader” (J Med Chem, 2024).
# The source made the active and inactive calls. The calls are words filed in the database; no cut-off is given here.
# Legend:
# [1] = target: T1, Protein cereblon/Histone-lysine N-methyltransferase NSD2 (Homo sapiens) (UniProt O96028+Q96SW2); experiment: PROTAC activity at CRBN/NSD2 in human RPMI 8402 cells assessed as induction of NSD2 degradation incubated for 24 hrs by immunoblot analysis; type: cell-based; conditions: dose 0.001-10 µM
# T1 sequence (O96028 whole entry, looked up): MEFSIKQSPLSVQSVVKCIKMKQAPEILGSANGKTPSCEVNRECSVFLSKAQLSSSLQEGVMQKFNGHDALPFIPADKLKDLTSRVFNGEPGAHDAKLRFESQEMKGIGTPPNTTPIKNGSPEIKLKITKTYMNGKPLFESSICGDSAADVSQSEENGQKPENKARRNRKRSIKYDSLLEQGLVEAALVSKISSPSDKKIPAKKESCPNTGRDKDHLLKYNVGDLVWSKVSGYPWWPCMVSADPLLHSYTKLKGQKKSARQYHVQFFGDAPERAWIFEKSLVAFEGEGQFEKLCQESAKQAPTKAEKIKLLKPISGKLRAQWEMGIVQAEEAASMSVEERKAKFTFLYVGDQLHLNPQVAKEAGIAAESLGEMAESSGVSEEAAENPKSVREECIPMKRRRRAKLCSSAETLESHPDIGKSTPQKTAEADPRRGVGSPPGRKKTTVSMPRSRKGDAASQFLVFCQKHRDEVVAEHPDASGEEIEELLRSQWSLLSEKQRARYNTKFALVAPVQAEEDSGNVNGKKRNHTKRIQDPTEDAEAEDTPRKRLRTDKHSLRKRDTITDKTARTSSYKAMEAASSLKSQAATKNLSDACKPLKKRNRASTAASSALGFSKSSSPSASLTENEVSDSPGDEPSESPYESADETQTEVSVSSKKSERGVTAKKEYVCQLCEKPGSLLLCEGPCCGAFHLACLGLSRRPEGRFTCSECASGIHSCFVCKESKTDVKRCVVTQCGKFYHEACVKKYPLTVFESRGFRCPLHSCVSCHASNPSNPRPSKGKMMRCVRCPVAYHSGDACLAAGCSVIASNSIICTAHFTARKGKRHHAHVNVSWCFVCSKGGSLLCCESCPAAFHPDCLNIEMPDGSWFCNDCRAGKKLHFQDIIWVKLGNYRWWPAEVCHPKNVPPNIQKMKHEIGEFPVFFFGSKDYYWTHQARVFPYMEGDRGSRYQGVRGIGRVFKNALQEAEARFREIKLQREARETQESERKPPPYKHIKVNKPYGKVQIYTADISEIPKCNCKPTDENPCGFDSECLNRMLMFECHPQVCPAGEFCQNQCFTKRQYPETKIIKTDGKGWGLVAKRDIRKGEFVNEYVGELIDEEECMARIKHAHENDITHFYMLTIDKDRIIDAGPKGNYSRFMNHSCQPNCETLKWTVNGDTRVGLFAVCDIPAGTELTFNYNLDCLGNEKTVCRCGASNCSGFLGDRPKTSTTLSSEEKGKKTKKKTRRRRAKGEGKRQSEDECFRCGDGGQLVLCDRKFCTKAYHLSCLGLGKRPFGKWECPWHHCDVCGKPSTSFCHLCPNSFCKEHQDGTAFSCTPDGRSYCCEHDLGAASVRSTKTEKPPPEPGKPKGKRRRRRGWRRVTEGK
# T1 sequence (Q96SW2 whole entry, looked up): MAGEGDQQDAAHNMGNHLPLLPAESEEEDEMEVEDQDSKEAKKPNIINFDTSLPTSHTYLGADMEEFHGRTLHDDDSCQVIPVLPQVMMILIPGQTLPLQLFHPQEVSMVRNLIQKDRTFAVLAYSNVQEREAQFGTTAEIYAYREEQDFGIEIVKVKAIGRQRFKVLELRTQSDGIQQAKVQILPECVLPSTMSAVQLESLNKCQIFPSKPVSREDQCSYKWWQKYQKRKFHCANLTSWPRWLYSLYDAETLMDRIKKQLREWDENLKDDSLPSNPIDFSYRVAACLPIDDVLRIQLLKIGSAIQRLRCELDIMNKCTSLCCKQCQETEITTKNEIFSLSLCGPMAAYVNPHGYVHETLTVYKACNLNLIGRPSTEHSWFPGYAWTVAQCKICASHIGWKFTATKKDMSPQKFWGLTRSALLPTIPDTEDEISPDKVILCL
# [2] = target: T1, Protein cereblon/Histone-lysine N-methyltransferase NSD2 (Homo sapiens); experiment: PROTAC activity at CRBN/NSD2 in human SEM cells assessed as induction of NSD2 degradation incubated for 24 hrs by immunoblot analysis; type: cell-based; conditions: dose 0.001-10 µM
# [3] = target: T1, Protein cereblon/Histone-lysine N-methyltransferase NSD2 (Homo sapiens); experiment: PROTAC activity at CRBN/NSD2 in human RPMI 8402 cells assessed as induction of NSD2 degradation at 2 uM measured after 4 to 8 hrs hrs by immunoblot analysis; type: cell-based; conditions: time 4-8 hrs
# [4] = target: T1, Protein cereblon/Histone-lysine N-methyltransferase NSD2 (Homo sapiens); experiment: PROTAC activity at CRBN/NSD2 in human RPMI 8402 cells assessed as induction of NSD2 degradation at 2 uM measured after 12 to 24 hrs by immunoblot analysis; type: cell-based; conditions: time 12-24 hrs
# [5] = target: T1, Protein cereblon/Histone-lysine N-methyltransferase NSD2 (Homo sapiens); experiment: PROTAC activity at CRBN/NSD2 in human RPMI 8402 cells assessed as induction of NSD2 degradation at 2 uM pretreated with thalidomide for 2 hrs followed by compound addition and measured after 6 to 12 hrs by Western blot analysis; type: cell-based; conditions: time 6-12 hrs
# [6] = target: T1, Protein cereblon/Histone-lysine N-methyltransferase NSD2 (Homo sapiens); experiment: PROTAC activity at CRBN/NSD2 in human SEM cells assessed as decrease in NSD2 level at 2 uM measured after 4 hrs by TMT-labeled quantitative proteomics assay; type: cell-based
# [7] = target: Protein cereblon/Histone-lysine N-methyltransferase, H3 lysine-36 specific (Homo sapiens) (UniProt Q96L73+Q96SW2); experiment: PROTAC activity at CRBN/NSD1 in human SEM cells assessed as decrease in NSD1 level at 2 uM measured upto 8 hrs by immunoblot analysis; type: cell-based
# Protein cereblon/Histone-lysine N-methyltransferase, H3 lysine-36 specific (Homo sapiens), sequence (Q96L73 whole entry, looked up): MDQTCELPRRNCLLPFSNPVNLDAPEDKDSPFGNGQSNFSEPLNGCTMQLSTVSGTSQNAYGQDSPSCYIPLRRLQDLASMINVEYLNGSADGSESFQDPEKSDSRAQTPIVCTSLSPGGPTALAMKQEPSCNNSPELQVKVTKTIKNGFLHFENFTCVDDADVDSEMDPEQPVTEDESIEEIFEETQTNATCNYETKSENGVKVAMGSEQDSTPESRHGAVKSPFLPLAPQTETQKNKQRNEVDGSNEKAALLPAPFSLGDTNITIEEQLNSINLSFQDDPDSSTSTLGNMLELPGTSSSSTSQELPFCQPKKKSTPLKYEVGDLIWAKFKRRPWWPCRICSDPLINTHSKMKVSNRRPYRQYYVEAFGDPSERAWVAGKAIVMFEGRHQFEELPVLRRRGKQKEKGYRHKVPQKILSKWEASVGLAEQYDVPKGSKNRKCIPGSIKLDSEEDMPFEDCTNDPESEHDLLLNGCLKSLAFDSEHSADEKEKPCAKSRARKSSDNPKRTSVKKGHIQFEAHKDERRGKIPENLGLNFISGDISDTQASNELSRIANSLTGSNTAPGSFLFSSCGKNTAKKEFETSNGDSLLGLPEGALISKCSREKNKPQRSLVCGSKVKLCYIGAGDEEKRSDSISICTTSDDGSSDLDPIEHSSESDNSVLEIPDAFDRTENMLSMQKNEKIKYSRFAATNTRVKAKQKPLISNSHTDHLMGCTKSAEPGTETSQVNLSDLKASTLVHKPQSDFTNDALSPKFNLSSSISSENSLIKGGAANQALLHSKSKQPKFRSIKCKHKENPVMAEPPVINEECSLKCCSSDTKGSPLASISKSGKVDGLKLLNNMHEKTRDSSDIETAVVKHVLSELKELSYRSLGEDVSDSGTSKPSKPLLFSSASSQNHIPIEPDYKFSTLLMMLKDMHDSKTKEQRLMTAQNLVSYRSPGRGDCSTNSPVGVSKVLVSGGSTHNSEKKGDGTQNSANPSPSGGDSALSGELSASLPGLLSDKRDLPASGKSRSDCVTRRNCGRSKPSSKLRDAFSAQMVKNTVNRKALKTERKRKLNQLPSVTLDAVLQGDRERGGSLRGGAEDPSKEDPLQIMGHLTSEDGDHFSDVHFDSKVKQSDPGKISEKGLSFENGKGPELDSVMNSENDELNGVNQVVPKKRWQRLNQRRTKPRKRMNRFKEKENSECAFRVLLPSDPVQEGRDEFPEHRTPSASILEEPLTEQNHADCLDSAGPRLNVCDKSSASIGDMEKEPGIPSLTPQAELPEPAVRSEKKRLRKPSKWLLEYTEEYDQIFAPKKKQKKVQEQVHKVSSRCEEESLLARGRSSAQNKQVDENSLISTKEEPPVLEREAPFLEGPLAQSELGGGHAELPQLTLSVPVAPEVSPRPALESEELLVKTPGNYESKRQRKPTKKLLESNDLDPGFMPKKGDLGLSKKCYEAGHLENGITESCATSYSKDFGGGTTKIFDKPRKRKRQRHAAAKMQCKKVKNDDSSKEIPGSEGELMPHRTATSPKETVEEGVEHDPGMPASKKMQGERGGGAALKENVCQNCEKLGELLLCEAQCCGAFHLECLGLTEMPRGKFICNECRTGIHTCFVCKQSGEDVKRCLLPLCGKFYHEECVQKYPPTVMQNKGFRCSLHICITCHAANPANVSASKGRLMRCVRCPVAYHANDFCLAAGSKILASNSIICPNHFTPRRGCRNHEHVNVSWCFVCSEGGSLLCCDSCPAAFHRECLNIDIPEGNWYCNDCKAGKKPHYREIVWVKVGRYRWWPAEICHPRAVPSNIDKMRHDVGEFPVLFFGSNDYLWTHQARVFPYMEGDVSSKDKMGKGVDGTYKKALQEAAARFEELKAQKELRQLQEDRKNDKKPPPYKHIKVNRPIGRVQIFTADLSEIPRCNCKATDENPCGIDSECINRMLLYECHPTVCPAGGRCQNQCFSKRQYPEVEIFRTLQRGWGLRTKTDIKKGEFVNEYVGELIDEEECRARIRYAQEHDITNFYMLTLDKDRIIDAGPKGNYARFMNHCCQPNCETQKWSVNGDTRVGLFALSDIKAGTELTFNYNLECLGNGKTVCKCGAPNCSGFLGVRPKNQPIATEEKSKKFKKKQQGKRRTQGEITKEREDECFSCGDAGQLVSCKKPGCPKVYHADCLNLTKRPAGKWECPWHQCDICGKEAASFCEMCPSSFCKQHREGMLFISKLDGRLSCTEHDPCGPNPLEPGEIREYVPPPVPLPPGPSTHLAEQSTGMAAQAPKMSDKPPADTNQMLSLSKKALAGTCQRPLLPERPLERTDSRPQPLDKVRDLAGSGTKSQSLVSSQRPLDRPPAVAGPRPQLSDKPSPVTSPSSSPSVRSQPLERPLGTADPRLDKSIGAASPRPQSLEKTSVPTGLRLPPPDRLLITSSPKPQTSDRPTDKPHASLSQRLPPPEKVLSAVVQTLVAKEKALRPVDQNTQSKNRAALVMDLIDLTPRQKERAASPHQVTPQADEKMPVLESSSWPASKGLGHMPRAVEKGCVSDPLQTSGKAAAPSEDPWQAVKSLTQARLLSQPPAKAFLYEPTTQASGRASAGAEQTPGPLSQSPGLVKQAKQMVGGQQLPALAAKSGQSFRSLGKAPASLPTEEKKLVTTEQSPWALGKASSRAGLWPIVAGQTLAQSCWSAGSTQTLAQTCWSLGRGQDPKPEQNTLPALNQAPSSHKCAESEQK
# Protein cereblon/Histone-lysine N-methyltransferase, H3 lysine-36 specific (Homo sapiens), sequence (Q96SW2 whole entry, looked up): as the sequence (Q96SW2 whole entry, looked up) above
# [8] = target: Cereblon/Ikaros (Homo sapiens) (UniProt Q96SW2+Q13422); experiment: PROTAC activity at CRBN/IKZF1 in human SEM cells assessed as decrease in IKZF1 level at 2 uM measured upto 8 hrs by immunoblot analysis; type: cell-based
# [9] = target: T2, Protein cereblon/Eukaryotic peptide chain release factor GTP-binding subunit ERF3A (Homo sapiens) (UniProt Q96SW2+P15170); experiment: PROTAC activity at CRBN/GSPT1 in human SEM cells assessed as decrease in GSPT1 level at 2 uM measured upto 8 hrs by immunoblot analysis; type: cell-based
# T2 sequence (P15170 whole entry, looked up): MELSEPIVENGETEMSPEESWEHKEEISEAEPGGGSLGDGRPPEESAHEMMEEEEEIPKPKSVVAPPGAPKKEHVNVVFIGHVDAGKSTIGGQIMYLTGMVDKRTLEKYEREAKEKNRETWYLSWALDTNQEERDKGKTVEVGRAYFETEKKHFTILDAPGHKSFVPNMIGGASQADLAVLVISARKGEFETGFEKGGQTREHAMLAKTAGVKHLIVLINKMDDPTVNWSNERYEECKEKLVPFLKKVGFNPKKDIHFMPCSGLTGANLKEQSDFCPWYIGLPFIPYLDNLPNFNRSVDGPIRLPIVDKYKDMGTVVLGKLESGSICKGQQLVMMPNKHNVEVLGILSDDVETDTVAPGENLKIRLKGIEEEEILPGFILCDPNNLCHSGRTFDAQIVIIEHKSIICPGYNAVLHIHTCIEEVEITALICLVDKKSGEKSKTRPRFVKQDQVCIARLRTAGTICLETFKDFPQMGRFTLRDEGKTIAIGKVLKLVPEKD
# T2 sequence (Q96SW2 whole entry, looked up): as the sequence (Q96SW2 whole entry, looked up) above
# [10] = target: T2, Protein cereblon/Eukaryotic peptide chain release factor GTP-binding subunit ERF3A (Homo sapiens); experiment: PROTAC activity at CRBN/GSPT1 in human RPMI 8402 cells assessed as decrease in GSPT1 level at 2 uM by immunoblot analysis; type: cell-based
# [11] = target: T1, Protein cereblon/Histone-lysine N-methyltransferase NSD2 (Homo sapiens); experiment: PROTAC activity at CRBN/NSD2 in human RPMI 8402 cells assessed as downregulation of H3K36Me2 level at 2 uM measured upto 24 hrs hrs by immunoblot analysis; type: cell-based
# RPMI 8402 = experiment: Inhibition of colony formation in human RPMI 8402 cells at 2 uM administered every three days for 30 days by iodonitrotetrazolium chloride staining based microscopy analysis; type: functional, cell-based; conditions: time 30.0 day
# SEM cells = experiment: Cytotoxicity against human SEM cells harbouring NSD2 assessed as inhibition of cell growth at 2 uM measured after 9 days by Celltiter-glo assay; type: functional, cell-based; conditions: time 9.0 day
# [12] = target: T1, Protein cereblon/Histone-lysine N-methyltransferase NSD2 (Homo sapiens); experiment: In vivo PROTAC activity at CRBN/NSD2 in SCID mouse xenografted with human SEM cells assessed as downregulation of NSD2 level at 60 mg/kg, iv for 5 days by Western blot analysis; type: functional, organism-based; conditions: time 5.0 day
# [13] = target: T1, Protein cereblon/Histone-lysine N-methyltransferase NSD2 (Homo sapiens); experiment: In vivo PROTAC activity at CRBN/NSD2 in SCID mouse xenografted with human 22Rv1 cells assessed as downregulation of NSD2 level at 60 mg/kg, iv for 5 days by immunohistochemical analysis; type: functional, organism-based; conditions: CWR22R, time 5.0 day
compound,measurement,setting,value
O=C1CCC(N2C(=O)c3ccc(N4CCC(NC(=O)c5ccc(NC(=O)c6ccc(CN(C(=O)c7ccc8c(c7)OCC(=O)N8)C7CC7)cc6)cc5)CC4)cc3C2=O)C(=O)N1 (stereo not given),Activity,[1],Dose-Dependent Effect
same,Activity,[2],Dose-Dependent Effect
same,Activity,[3],Active
same,Activity,[4],Active
same,Activity,[5],inactive
same,Activity,[6],Active
same,Activity,[7],inactive
same,Activity,[8],inactive
same,Activity,[9],inactive
same,Activity,[10],Active
same,Activity,[11],Active
same,inhibition,RPMI 8402,Active
same,Activity,SEM cells,Active
same,Activity,[12],Active
same,Activity,[13],Active
